From US20060084789A1, “Immunotherapeutic and immunoprphylactic reagents” (priority 2002, published 2006) come the findings set out here.

In the test the test system is RGP-specific TCL. Briefly: TCL proliferation assay (3H-thymidine incorporation, stimulation index). Format: cell-based, human. The following applies: for Proliferative response, stimulation index: peptides 10 μg/ml; for T cell responses to Lol p 5 peptides: 21 TCL tested; for Lol p 1 peptides recognised by one or more TCL: 34 TCL tested, all recognised with the exception of the four named. As to the method:
Generation of Short-Term RGP-Specific TCL
PBMC were cultured in 24-well plates (Costar, Mass., USA) at 2.5×10^6 cells/well with RGP extract at a concentration of 25 or 50 μg/ml in RPMI 1640 medium (Gibco BRL, NY, USA) supplemented with 2 mM GlutaMAX I (Gibco BRL), 0.05 mg/ml gentamicin (David Bull Laboratories, Mulgrave, Victoria, Australia) and 5% heat-inactivated hunan AB^+ serum (Sigma, Mo., USA) for 7 days at 37° C. in a 5% CO2 humidified incubator. At day 7, cells were washed once and restimulated in 24-well plates at 5×10^5 cells/well width 25 or 50 μg/ml of RGP extract in the presence of 5×10^5 cells/well irradiated (3000 rads) autologous PBMC as a source of antigen presenting cells (APC). At day 2 following restimulation, 10 U/ml of Lymphocult T-LF (LC; Biotest, Germany) was added as a source of IL-2 and at day 4, 1 ml of culture medium was removed and replaced with fresh medium and 10 U/ml of LC. […] In all experiments T cells were rested for 6 to 7 days after the last addition of antigen and APC before testing.
T cells (5×10^4/well) were cultured in 96-well U bottom plates with either RGP extract at concentrations ranging from 25 to 200 μg/ml, purified Lol p 1 (0.12 to 2 μg/ml) or Lol p 5 (0.1 to 10 μg/ml), or Lol p 1 or Lol p 5 peptides (10 μg/ml), or medium alone (to determine background levels of proliferation), in the presence of washed autologous irradiated (3000 rads) PBMC (5×10^4/well). […] Cultures were incubated for 3 days, pulsed for the last 16 hours with ^3H-thymidine (1 μCi/well) and harvested onto glass fibre filters. ^3H-thymidine incorporation was measured by liquid scintillation spectroscopy and the mean counts per minute (cpm) for triplicate cultures was determined. Responses were considered positive if the stimulation index (SI, cpm of antigen-stimulated T cells divided by cpm of unstimulated T cells) was ≧2.5. Where several concentrations of allergen were tested (i.e., RGP, Lol p 1 and Lol p 5), values corresponding to the highest proliferation are shown.

[1] abbreviates: Subject 11 TCL, Lol p 5 series (Table 4), RGP and Lol p 5 maximal response.
Where [2] appears, read: Subject 20 TCL, Lol p 5 series (Table 4), RGP and Lol p 5 maximal response.
Where [3] appears, read: Subject 35 TCL, Lol p 5 series (Table 4), RGP and Lol p 5 maximal response.
[4] abbreviates: Subject 36 TCL, Lol p 5 series (Table 4), RGP and Lol p 5 maximal response.
Setting [5] is: Subject 37 TCL, Lol p 5 series (Table 4), RGP and Lol p 5 maximal response.
The mark [6] stands for this setting: Subject 4 TCL, Lol p 5 series (Table 4), RGP and Lol p 5 maximal response.
Where [7] appears, read: Subject 7 TCL, Lol p 5 series (Table 4), RGP and Lol p 5 maximal response.
[8] abbreviates: Subject 3 TCL, Lol p 1 series (Table 3), RGP and Lol p 1 maximal response.
[9] abbreviates: Subject 11 TCL, Lol p 1 series (Table 3), RGP and Lol p 1 maximal response.
Setting [10] is: Subject 2 TCL, Lol p 1 series (Table 3), RGP and Lol p 1 maximal response.
Setting [11] is: Subject 12 TCL, Lol p 1 series (Table 3), RGP and Lol p 1 maximal response.
Setting [12] is: Subject 12 TCL, Lol p 5 series (Table 4), RGP and Lol p 5 maximal response.
[13] abbreviates: Subject 4 TCL, Lol p 1 series (Table 3), RGP and Lol p 1 maximal response.

In the case of “PEVKYAVFEAALTKAITAMT (Lolium perenne) [Lol p 5 peptide 217-236]”, the “Proliferative response, stimulation index” value is recorded as 5.4 under setting [1]; 4.5 under setting [2]; 9.5 (Subject 27 TCL, Lol p 5 series (Table 4), RGP and Lol p 5 maximal response, † affinity purified Lol p 5); 3.5 under setting [3]; 3.5 under setting [4]; 11.0 under setting [5].

For the substance “AFSESSKGLLATSAAKAPGL (Lolium perenne) [Lol p 5 peptide 64-83]”, the “Proliferative response, stimulation index” value is 2.8 under setting [6] and 2.8 under setting [7].

Regarding “Lol p 1 peptide 217-236: synthetic 20-mer, amino acids 217-236 of Lol p 1A (SEQ ID NO:1) (EGGTKSEVEDVIPEGWKADT; Lolium perenne)”, the “Proliferative response, stimulation index” value amounted to 3.3 under setting [8] and 4.4 under setting [9].

Turning to “AGELELQFRRVKCKYPDDTK (Lolium perenne) [Lol p 1 peptide 127-146]”, the “Proliferative response, stimulation index” value turned out to be 5.8 under setting [10]; 3.7 (Subject 13 TCL, Lol p 1 series (Table 3), RGP and Lol p 1 maximal response); 3.0 (Subject 17 TCL, Lol p 1 series (Table 3), RGP and Lol p 1 maximal response).

As to “Lol p 1 peptide 172-191: synthetic 20-mer, amino acids 172-191 of Lol p 1A (SEQ ID NO:1) (GDVVAVDIKEKGKDKWIELK; Lolium perenne)”, under “Subject 9 TCL, Lol p 1 series (Table 3), RGP and Lol p 1 maximal response”, the “Proliferative response, stimulation index” value turned out to be 2.5.

“Lol p 5 peptide 163-182: synthetic 20-mer, amino acids 163-182 of Lol p 5A (SEQ ID NO:2) (AANAAPTNDKFTVFESAFNK; Lolium perenne)”: the “Proliferative response, stimulation index” value under setting [2] came out at 2.5.

As for “Lol p 5 peptide 136-155: synthetic 20-mer, amino acids 136-155 of Lol p 5A (SEQ ID NO:2) (EVPAAKIPTGELQIVDKIDA; Lolium perenne)”, the “T cell responses to Lol p 5 peptides” value is reported as “nor were T cell responses detected”.

“Lol p 1 peptide 118-137: synthetic 20-mer, amino acids 118-137 of Lol p 1A (SEQ ID NO:1) (KGEEQKLRASAGELELQFRR; Lolium perenne)”: the “Proliferative response, stimulation index” value runs as follows: under setting [10], 6.2; under setting [11], 2.5.

On to “Lol p 1 peptide 199-218: synthetic 20-mer, amino acids 199-218 of Lol p 1A (SEQ ID NO:1) (RIDTPDKLTGPFTVRYTTEG; Lolium perenne)”, for which the “Lol p 1 peptides recognised by one or more TCL” value (from here on “Lol p 1 peptides recognised”) is given as “exception”.

With “Lol p 1 peptide 82-101: synthetic 20-mer, amino acids 82-101 of Lol p 1A (SEQ ID NO:1) (SCSGEAVTVTITDDNEEPIA; Lolium perenne)”, the “Proliferative response, stimulation index” value runs as follows: under setting [8], 3.6; under setting [9], 3.6.

On to “Lol p 1 peptide 208-227: synthetic 20-mer, amino acids 208-227 of Lol p 1A (SEQ ID NO:1) (GPFTVRYTTEGGTKSEVEDV; Lolium perenne)”, for which the “Lol p 1 peptides recognised” value is “exception”. Also, the “Proliferative response, stimulation index” value under setting [8] stood at 4.4.

Consider “Lol p 5 peptide 100-119: synthetic 20-mer, amino acids 100-119 of Lol p 5A (SEQ ID NO:2) (GATPEAKYDAFVTALTEALR; Lolium perenne)”, for which the “Proliferative response, stimulation index” value came out at 3.8 under setting [6], 10.0 under setting [1], 7.5 under setting [12] and 2.5 under setting [3].

Take “Lol p 5 peptide 73-92: synthetic 20-mer, amino acids 73-92 of Lol p 5A (SEQ ID NO:2) (LATSAAKAPGLIPKLDTAYD; Lolium perenne)”: the “Proliferative response, stimulation index” value under setting [7] is reported as 2.6.

As for “Lol p 1 peptide 221-240: synthetic 20-mer, amino acids 221-240 of Lol p 1A (SEQ ID NO:1) (KSEVEDVIPEGWKADTSYSA; Lolium perenne)”, the “Proliferative response, stimulation index” value under setting [9] is recorded as 3.3.

For the substance “Lol p 1 peptide 46-65: synthetic 20-mer, amino acids 46-65 of Lol p 1A (SEQ ID NO:1) (VDKAPFNGMTGCGNTPIFKD; Lolium perenne)”, the “Proliferative response, stimulation index” value came out at 8.4 (Subject 5 TCL, Lol p 1 series (Table 3), RGP and Lol p 1 maximal response); 4.0 under setting [11].

As to “Lol p 5 peptide 82-101: synthetic 20-mer, amino acids 82-101 of Lol p 5A (SEQ ID NO:2) (GLIPKLDTAYDVAYKAAEGA; Lolium perenne)”, the “T cell responses to Lol p 5 peptides” value was “nor were T cell responses detected”.

For the substance “Lol p 5 peptide 181-200: synthetic 20-mer, amino acids 181-200 of Lol p 5A (SEQ ID NO:2) (NKALNECTGGAYETYKFIPS; Lolium perenne)”, the “Proliferative response, stimulation index” value under setting [2] was determined as 3.4.

On to “Lol p 5 peptide 91-110: synthetic 20-mer, amino acids 91-110 of Lol p 5A (SEQ ID NO:2) (YDVAYKAAEGATPEAKYDAF; Lolium perenne)”, for which the “T cell responses to Lol p 5 peptides” value is on record as “nor were T cell responses detected”.

Take “KFTVFESAFNKALNECTGGA (Lolium perenne) [Lol p 5 peptide 172-191]”: the “Proliferative response, stimulation index” value amounted to 2.7 under setting [6], 2.5 under setting [12] and 3.0 under setting [2].

As for “VAAAANAPPADKFKIFEAAF (Lolium perenne) [Lol p 5 peptide 46-65]”, the “Proliferative response, stimulation index” value under setting [12] stood at 6.5; the “Proliferative response, stimulation index” value under setting [4] was 2.7; the “Proliferative response, stimulation index” value under setting [5] was 6.6.

For “Lol p 5 peptide 109-128: synthetic 20-mer, amino acids 109-128 of Lol p 5A (SEQ ID NO:2) (AFVTALTEALRVIAGALEVH; Lolium perenne)”, the “T cell responses to Lol p 5 peptides” value is recorded as “nor were T cell responses detected”.

As to “Lol p 1 peptide 55-74: synthetic 20-mer, amino acids 55-74 of Lol p 1A (SEQ ID NO:1) (TGCGNTPIFKDGRGCGSCFE; Lolium perenne)”, the “Lol p 1 peptides recognised” value is listed as “exception”.

With “Lol p 1 peptide 91-110: synthetic 20-mer, amino acids 91-110 of Lol p 1A (SEQ ID NO:1)”, the “Proliferative response, stimulation index” value runs as follows: under setting [13], 3.6; under setting [9], 4.9.

Take “Lol p 1 peptide 145-164: synthetic 20-mer, amino acids 145-164 of Lol p 1A (SEQ ID NO:1) (GTKPTFHVEKASNPNYLAIL; Lolium perenne)”: the “Proliferative response, stimulation index” value under setting [11] came out at 4.5.

Take “FEIKCTKPESCSGEAVTVTI (Lolium perenne) [Lol p 1 peptide 73-92]”: the “Proliferative response, stimulation index” value was determined as 3.9 (Subject 1 TCL, Lol p 1 series (Table 3), RGP and Lol p 1 maximal response); 2.9 under setting [13]; 2.6 under setting [9].

For the substance “Lol p 5 peptide 127-146: synthetic 20-mer, amino acids 127-146 of Lol p 5A (SEQ ID NO:2) (VHAVKPATEEVPAAKIPTGE; Lolium perenne)”, the “T cell responses to Lol p 5 peptides” value is given as “nor were T cell responses detected”.
